Measurements reported in patent publication US20250161289A1, “KAT6 Targeting Compounds” (Prelude Therapeutics Incorporated, priority 2023, published 2025).

Target: T1, KAT6A (Homo sapiens, UniProt Q92794)
T1 construct: expressed in transfected cells; host or cells: HeLa
Experiment: HiBit KAT6A Degradation Assessment
Format: cell-based
Conditions: HeLa cells with a HiBit tagged KAT6A; for Dmax: HeLa
Method: The degradation activity of compounds was evaluated by measuring levels of KAT6A protein using the HiBiT system. These studies were conducted in HeLa cells with a HiBit tagged KAT6A. Cells were maintained in a 37° C. incubator at 5% CO2 in EMEM or DMEM (ATCC, 30-2003) supplemented with 10% v/v FBS (Gibco, 26140-079) and 1% penicillin streptomycin. Cells were seeded in 384-well plates at a density of 2,000 cells/well. Compounds dissolved in DMSO were added in 9-point serial dilution. After 18-24 h of treatment, KAT6A levels were measured using the Nano-Glo® HiBiT Lytic Detection System (Promega catalog number N3030) per manufacturer's instructions. Luminescence signal was measured with a multimode plate reader (Envision 2105, Perkin Elmer or PHERAStar FSX, BMG Labtech). Luminescence values were normalized to background and DMSO controls to quantify KAT6A for each condition. Results were analyzed, and DC50 and Dmax values obtained using a four-parameter logistic curve fit. The results are summarized in Table 3 (18 h of treatment) and Table 4 (24 h of treatment).

T1 sequence (Q92794 whole entry): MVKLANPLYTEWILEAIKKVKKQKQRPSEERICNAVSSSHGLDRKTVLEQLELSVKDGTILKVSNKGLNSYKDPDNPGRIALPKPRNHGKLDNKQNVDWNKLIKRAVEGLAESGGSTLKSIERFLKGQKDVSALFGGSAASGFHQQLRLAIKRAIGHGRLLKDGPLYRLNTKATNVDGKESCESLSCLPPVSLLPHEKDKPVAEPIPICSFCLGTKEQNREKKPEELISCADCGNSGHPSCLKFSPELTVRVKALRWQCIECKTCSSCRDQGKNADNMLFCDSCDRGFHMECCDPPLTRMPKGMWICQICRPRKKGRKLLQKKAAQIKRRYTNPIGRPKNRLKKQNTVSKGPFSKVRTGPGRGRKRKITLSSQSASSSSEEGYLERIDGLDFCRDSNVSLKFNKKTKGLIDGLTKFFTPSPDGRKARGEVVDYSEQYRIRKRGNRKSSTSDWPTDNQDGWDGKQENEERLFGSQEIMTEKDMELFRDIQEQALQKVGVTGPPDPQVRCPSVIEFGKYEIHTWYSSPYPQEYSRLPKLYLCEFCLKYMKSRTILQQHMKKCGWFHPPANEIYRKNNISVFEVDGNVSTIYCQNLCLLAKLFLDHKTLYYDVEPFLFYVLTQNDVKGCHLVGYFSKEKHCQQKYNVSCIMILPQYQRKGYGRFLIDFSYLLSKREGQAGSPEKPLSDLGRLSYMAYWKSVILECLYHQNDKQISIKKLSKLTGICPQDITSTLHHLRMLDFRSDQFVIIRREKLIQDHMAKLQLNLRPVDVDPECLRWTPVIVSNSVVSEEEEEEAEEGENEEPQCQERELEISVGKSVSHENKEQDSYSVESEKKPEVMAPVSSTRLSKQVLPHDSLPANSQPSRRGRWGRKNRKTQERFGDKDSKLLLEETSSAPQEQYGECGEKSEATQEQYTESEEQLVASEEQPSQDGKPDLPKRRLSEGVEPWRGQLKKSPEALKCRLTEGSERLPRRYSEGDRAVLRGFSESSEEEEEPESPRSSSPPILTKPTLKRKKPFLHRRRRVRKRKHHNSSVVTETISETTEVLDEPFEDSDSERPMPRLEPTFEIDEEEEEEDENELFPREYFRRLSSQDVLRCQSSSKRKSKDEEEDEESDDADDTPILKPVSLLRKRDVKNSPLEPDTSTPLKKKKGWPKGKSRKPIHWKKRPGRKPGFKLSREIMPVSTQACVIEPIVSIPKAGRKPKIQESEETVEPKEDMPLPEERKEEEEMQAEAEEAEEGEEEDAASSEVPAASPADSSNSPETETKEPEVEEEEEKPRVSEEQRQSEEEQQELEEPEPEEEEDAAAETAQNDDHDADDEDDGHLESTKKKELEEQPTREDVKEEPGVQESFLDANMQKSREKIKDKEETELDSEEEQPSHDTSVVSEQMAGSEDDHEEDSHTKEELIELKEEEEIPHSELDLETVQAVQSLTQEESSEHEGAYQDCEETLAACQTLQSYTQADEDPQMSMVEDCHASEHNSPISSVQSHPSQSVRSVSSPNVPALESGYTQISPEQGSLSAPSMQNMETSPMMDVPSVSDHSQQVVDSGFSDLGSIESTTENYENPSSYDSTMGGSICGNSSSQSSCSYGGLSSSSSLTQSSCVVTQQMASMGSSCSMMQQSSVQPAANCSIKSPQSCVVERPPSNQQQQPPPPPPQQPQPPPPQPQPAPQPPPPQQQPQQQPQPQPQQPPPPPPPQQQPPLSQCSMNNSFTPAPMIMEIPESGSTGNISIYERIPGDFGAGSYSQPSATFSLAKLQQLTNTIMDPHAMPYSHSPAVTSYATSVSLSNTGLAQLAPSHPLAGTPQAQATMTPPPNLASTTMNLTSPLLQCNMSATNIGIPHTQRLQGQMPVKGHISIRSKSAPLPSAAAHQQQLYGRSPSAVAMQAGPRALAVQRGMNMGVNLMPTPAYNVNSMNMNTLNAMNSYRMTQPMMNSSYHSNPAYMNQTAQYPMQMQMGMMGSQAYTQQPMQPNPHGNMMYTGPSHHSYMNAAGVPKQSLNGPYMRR

`O=C1CC[C@H](N2Cc3cc(N4CC[C@@H](CN5CCC6(CC5)CN(c5cccc(S(=O)(=O)Nc7noc8cc(Cn9cccn9)c9c(c78)OCC9)c5)C6)C4)ccc3C2=O)C(=O)N1` [Example 1, N-(4-((1H-Pyrazol-1-yl)methyl)-2,3-dihydrobenzofuro[7,6-d]isoxazol-8-yl)-3-(7-(((S)-1-(2-((S)-2,6-dioxopiperidin-3-yl)-1-oxoisoindolin-5-yl)pyrrolidin-3-yl)methyl)-2,7-diazaspiro[3.5]nonan-2-yl)benzenesulfonamide] was tested, and the DC50 (18 h of treatment) was < 0.01 µM, the DC50 (24 h of treatment) was 0.01 to 0.1 µM and the Dmax (18 h of treatment) was > 75%. It also gave a Dmax (24 h of treatment) of 50 to 75%.
`O=C1CC[C@H](N2Cc3cc(N4CC[C@@H](CN5C[C@H]6CN(c7cccc(S(=O)(=O)Nc8noc9cc(Cn%10cccn%10)c%10c(c89)OCC%10)c7)C[C@@H]6C5)C4)ccc3C2=O)C(=O)N1` [Example 2, N-(4-((1H-Pyrazol-1-yl)methyl)-2,3-dihydrobenzofuro[7,6-d]isoxazol-8-yl)-3-((3aS,6aS)-5-(((S)-1-(2-((S)-2,6-dioxopiperidin-3-yl)-1-oxoisoindolin-5-yl)pyrrolidin-3-yl)methyl)hexahydropyrrolo[3,4-c]pyrrol-2(1H)-yl)benzenesulfonamide] was tested, and the DC50 (18 h of treatment) was 0.01 to 0.1 µM and the Dmax (18 h of treatment) was > 75%.
`O=C1CC[C@H](N2Cc3cc(N4CC[C@@H](CN5CCC6(CC5)CCN(c5cccc(S(=O)(=O)Nc7noc8cc(Cn9cccn9)c9c(c78)OCC9)c5)CC6)C4)ccc3C2=O)C(=O)N1` [Example 3, N-(4-((1H-Pyrazol-1-yl)methyl)-2,3-dihydrobenzofuro[7,6-d]isoxazol-8-yl)-3-(9-(((S)-1-(2-((S)-2,6-dioxopiperidin-3-yl)-1-oxoisoindolin-5-yl)pyrrolidin-3-yl)methyl)-3,9-diazaspiro[5.5]undecan-3-yl)benzenesulfonamide] was tested, and the DC50 (18 h of treatment) was 0.01 to 0.1 µM and the Dmax (18 h of treatment) was > 75%.
For `O=C1CC[C@H](N2Cc3cc(N4CC[C@@H](CN5CC6(CCN(c7cccc(S(=O)(=O)Nc8noc9cc(Cn%10cccn%10)c%10c(c89)OCC%10)c7)CC6)C5)C4)ccc3C2=O)C(=O)N1` [Example 4, N-(4-((1H-Pyrazol-1-yl)methyl)-2,3-dihydrobenzofuro[7,6-d]isoxazol-8-yl)-3-(2-(((S)-1-(2-((S)-2,6-dioxopiperidin-3-yl)-1-oxoisoindolin-5-yl)pyrrolidin-3-yl)methyl)-2,7-diazaspiro[3.5]nonan-7-yl)benzenesulfonamide], the DC50 (18 h of treatment) was 0.01 to 0.1 µM and the Dmax (18 h of treatment) was > 75%.
With `O=C1CC[C@H](N2Cc3cc(N4CC[C@@H](CNC5CCN(c6cccc(S(=O)(=O)Nc7noc8cc(Cn9cccn9)c9c(c78)OCC9)c6)CC5)C4)ccc3C2=O)C(=O)N1` [Example 5, N-(4-((1H-Pyrazol-1-yl)methyl)-2,3-dihydrobenzofuro[7,6-d]isoxazol-8-yl)-3-(4-((((S)-1-(2-((S)-2,6-dioxopiperidin-3-yl)-1-oxoisoindolin-5-yl)pyrrolidin-3-yl)methyl)amino)piperidin-1-yl)benzenesulfonamide] the Dmax (18 h of treatment) was 25 to 50%.
`O=C1CCC(N2C(=O)c3ccc(N4CCC5(CC4)CC(N4CCN(c6cccc(S(=O)(=O)Nc7noc8cc(Cn9cccn9)c9c(c78)OCC9)c6)CC4)C5)cc3C2=O)C(=O)N1` (stereo not shown) [Example 6, N-(4-((1H-Pyrazol-1-yl)methyl)-2,3-dihydrobenzofuro[7,6-d]isoxazol-8-yl)-3-(4-(7-(2-(2,6-dioxopiperidin-3-yl)-1,3-dioxoisoindolin-5-yl)-7-azaspiro[3.5]nonan-2-yl)piperazin-1-yl)benzenesulfonamide] gave a DC50 (18 h of treatment) of 0.1 to 1 µM and a Dmax (18 h of treatment) of 50 to 75%.
In the case of `O=C1CCC(N2C(=O)c3cccc(N4CCC(CN5CCN(c6cccc(S(=O)(=O)Nc7noc8cc(Cn9cccn9)c9c(c78)OCC9)c6)CC5)CC4)c3C2=O)C(=O)N1` (stereo not shown) [Example 7, N-(4-((1H-Pyrazol-1-yl)methyl)-2,3-dihydrobenzofuro[7,6-d]isoxazol-8-yl)-3-(4-((1-(2-(2,6-dioxopiperidin-3-yl)-1,3-dioxoisoindolin-4-yl)piperidin-4-yl)methyl)piperazin-1-yl)benzenesulfonamide], the DC50 (18 h of treatment) is reported as 0.1 to 1 µM and the Dmax (18 h of treatment) is reported as 50 to 75%.
In the case of `O=C1CCC(N2C(=O)c3ccc(N4CCC(CN5CCC(CN6CCN(c7cccc(S(=O)(=O)Nc8noc9cc(Cn%10cccn%10)c%10c(c89)OCC%10)c7)CC6)CC5)C4)cc3C2=O)C(=O)N1` (stereo not shown) [Example 8, N-(4-((1H-Pyrazol-1-yl)methyl)-2,3-dihydrobenzofuro[7,6-d]isoxazol-8-yl)-3-(4-((1-((1-(2-(2,6-dioxopiperidin-3-yl)-1,3-dioxoisoindolin-5-yl)pyrrolidin-3-yl)methyl)piperidin-4-yl)methyl)piperazin-1-yl)benzenesulfonamide], the DC50 (18 h of treatment) is reported as < 0.01 µM and the Dmax (18 h of treatment) is reported as > 75%.
In the case of `O=C1CCC(N2C(=O)c3ccc(N4CCC(CN5CCC(CN6CCN(c7cccc(S(=O)(=O)Nc8noc9cc(Cn%10cccn%10)c%10c(c89)OCC%10)c7)CC6)CC5)CC4)cc3C2=O)C(=O)N1` (stereo not shown) [Example 9, N-(4-((1H-Pyrazol-1-yl)methyl)-2,3-dihydrobenzofuro[7,6-d]isoxazol-8-yl)-3-(4-((1-((1-(2-(2,6-dioxopiperidin-3-yl)-1,3-dioxoisoindolin-5-yl)piperidin-4-yl)methyl)piperidin-4-yl)methyl)piperazin-1-yl)benzenesulfonamide], the DC50 (18 h of treatment) is reported as < 0.01 µM and the Dmax (18 h of treatment) is reported as 50 to 75%.
`COc1ccc(N2CC3(CCN(C[C@@H]4CCN(c5ccc6c(c5)CN([C@H]5CCC(=O)NC5=O)C6=O)C4)CC3)C2)c(OC)c1S(=O)(=O)Nc1noc2cc(Cn3cccn3)c3c(c12)OCC3` [Example 10, N-(4-((1H-Pyrazol-1-yl)methyl)-2,3-dihydrobenzofuro[7,6-d]isoxazol-8-yl)-3-(7-(((S)-1-(2-((S)-2,6-dioxopiperidin-3-yl)-1-oxoisoindolin-5-yl)pyrrolidin-3-yl)methyl)-2,7-diazaspiro[3.5]nonan-2-yl)-2,6-dimethoxybenzenesulfonamide] was tested, and the DC50 (24 h of treatment) was < 0.01 µM and the Dmax (24 h of treatment) was > 75%.
`COc1ccc(N2CC3(CCN(CC4CCN(c5ccc6c(c5)C(=O)N(C5CCC(=O)NC5=O)C6=O)CC4)CC3)C2)c(OC)c1S(=O)(=O)Nc1noc2cc(Cn3cccn3)c3c(c12)OCC3` (stereo not shown) [Example 11, N-(4-((1H-Pyrazol-1-yl)methyl)-2,3-dihydrobenzofuro[7,6-d]isoxazol-8-yl)-3-(7-((1-(2-(2,6-dioxopiperidin-3-yl)-1,3-dioxoisoindolin-5-yl)piperidin-4-yl)methyl)-2,7-diazaspiro[3.5]nonan-2-yl)-2,6-dimethoxybenzenesulfonamide] was tested, and the DC50 (24 h of treatment) was < 0.01 µM and the Dmax (24 h of treatment) was 50 to 75%.
In the case of `COc1c(N2CC3(CCN(CC4CCN(c5ccc6c(c5)C(=O)N(C5CCC(=O)NC5=O)C6=O)CC4)CC3)C2)cccc1S(=O)(=O)Nc1noc2cc(Cn3cccn3)c3c(c12)OCC3` (stereo not shown) [Example 12, N-(4-((1H-Pyrazol-1-yl)methyl)-2,3-dihydrobenzofuro[7,6-d]isoxazol-8-yl)-3-(7-((1-(2-(2,6-dioxopiperidin-3-yl)-1,3-dioxoisoindolin-5-yl)piperidin-4-yl)methyl)-2,7-diazaspiro[3.5]nonan-2-yl)-2-methoxybenzenesulfonamide], the DC50 (24 h of treatment) is reported as 0.01 to 0.1 µM and the Dmax (24 h of treatment) is reported as > 75%.
`COc1c(N2CC3(CCN(C[C@@H]4CCN(c5ccc6c(c5)CN([C@H]5CCC(=O)NC5=O)C6=O)C4)CC3)C2)cccc1S(=O)(=O)Nc1noc2cc(Cn3cccn3)c3c(c12)OCC3` [Example 13, N-(4-((1H-Pyrazol-1-yl)methyl)-2,3-dihydrobenzofuro[7,6-d]isoxazol-8-yl)-3-(7-(((S)-1-(2-((S)-2,6-dioxopiperidin-3-yl)-1-oxoisoindolin-5-yl)pyrrolidin-3-yl)methyl)-2,7-diazaspiro[3.5]nonan-2-yl)-2-methoxybenzenesulfonamide] was tested, and the DC50 (24 h of treatment) was < 0.01 µM and the Dmax (24 h of treatment) was > 75%.
For `COc1c(N2CC3(CCN(CC4CCN(c5cccc6c5C(=O)N(C5CCC(=O)NC5=O)C6=O)CC4)CC3)C2)cccc1S(=O)(=O)Nc1noc2cc(Cn3cccn3)c3c(c12)OCC3` (stereo not shown) [Example 14, N-(4-((1H-Pyrazol-1-yl)methyl)-2,3-dihydrobenzofuro[7,6-d]isoxazol-8-yl)-3-(7-((1-(2-(2,6-dioxopiperidin-3-yl)-1,3-dioxoisoindolin-4-yl)piperidin-4-yl)methyl)-2,7-diazaspiro[3.5]nonan-2-yl)-2-methoxybenzenesulfonamide], the DC50 (24 h of treatment) was < 0.01 µM and the Dmax (24 h of treatment) was > 75%.
Compound `O=C1CC[C@H](N2Cc3cc(N4CC[C@@H](CN5CCC6(CC5)CN(c5ccc(S(=O)(=O)Nc7noc8cc(Cn9cccn9)c9c(c78)OCC9)cc5)C6)C4)ccc3C2=O)C(=O)N1` [Example 15, N-(4-((1H-Pyrazol-1-yl)methyl)-2,3-dihydrobenzofuro[7,6-d]isoxazol-8-yl)-4-(7-(((S)-1-(2-((S)-2,6-dioxopiperidin-3-yl)-1-oxoisoindolin-5-yl)pyrrolidin-3-yl)methyl)-2,7-diazaspiro[3.5]nonan-2-yl)benzenesulfonamide] has a DC50 (24 h of treatment) of 0.01 to 0.1 µM and a Dmax (24 h of treatment) of 50 to 75%.
